Measurements taken from patent US11661403B2, “Oxadiazole compounds” (Vivace Therapeutics, Inc., priority 2018, dated 2023).
Like-named read-outs stand apart in the source and are kept apart here.

Test system: 8XTBD luciferase reporter (YAP) in HEK293T cells
Assay: YAP Reporter Assay
Type: cell-based
Settings: Homo sapiens, HEK-293T, 24-hr incubation, top concentration 3 μM, read-out: Firefly Luciferase IC50
[1] = HEK293T cells stably transfected with 8XTBD luciferase reporter and pRLTK

Row | SMILES | IC50 [1] [µM] | IC50 ([…]) [µM]
1 | NCc1nnc(-c2ccccc2Nc2ccc(C(F)(F)F)cc2)o1 [Compound 28, 2-[5-(aminomethyl)-1,3,4-oxadiazol-2-yl]-N-[4-(trifluoromethyl)phenyl]aniline] | 0.1 to 1 | 
2 | NC(=O)NC1(c2nnc(-c3ccccc3Nc3ccc(C(F)(F)F)cc3)o2)CC1 [Compound 62, 1-(1-(5-(2-((4-(trifluoromethyl)phenyl)amino)phenyl)-1,3,4-oxadiazol-2-yl)cyclopropyl)urea] | 0.1 to 1 | 
3 | CC(C)(C#N)c1nnc(-c2ccccc2Nc2ccc(C(F)(F)F)cc2)o1 [Compound 164, 2-methyl-2-(5-(2-((4-(trifluoromethyl)phenyl)amino)phenyl)-1,3,4-oxadiazol-2-yl)propanenitrile] | < 0.1 | 
4 | CC(C)N(C#N)Cc1nnc(-c2ccccc2Nc2ccc(C(F)(F)F)cc2)o1 [Compound 99, N-isopropyl-N-((5-(2-((4-(trifluoromethyl)phenyl)amino)phenyl)-1,3,4-oxadiazol-2-yl)methyl)cyanamide] | 0.1 to 1 | 
5 | COC(=O)c1nnc(-c2ccccc2Nc2ccc(C(F)(F)F)cc2)o1 [Compound 8, methyl 5-(2-((4-(trifluoromethyl)phenyl)amino)phenyl)-1,3,4-oxadiazole-2-carboxylate] | 0.1 to 1 | 
6 | CS(=O)(=O)N(CCO)c1nnc(-c2ccccc2Nc2ccc(C(F)(F)F)cc2)o1 [Compound 32, N-(2-hydroxyethyl)-N-(5-(2-((4-(trifluoromethyl)phenyl)amino)phenyl)-1,3,4-oxadiazol-2-yl)methanesulfonamide] | 0.1 to 1 | 
7 | CON(C)C(=O)c1nnc(-c2ccccc2Nc2ccc(C(F)(F)F)cc2)o1 [Compound 192, N-methoxy-N-methyl-5-(2-((4-(trifluoromethyl)phenyl)amino)phenyl)-1,3,4-oxadiazole-2-carboxamide] | 0.1 to 1 | 
8 | C=CCOc1nnc(-c2ccccc2Nc2ccc(C(F)(F)F)cc2)o1 [Compound 84, 2-(5-(allyloxy)-1,3,4-oxadiazol-2-yl)-N-(4-(trifluoromethyl)phenyl)aniline] |  | 0.1 to 1
9 | CN(C)C(=O)C1(c2nnc(-c3ccccc3Nc3ccc(C(F)(F)F)cc3)o2)CC1 [Compound 185, N,N-dimethyl-1-(5-(2-((4-(trifluoromethyl)phenyl)amino)phenyl)-1,3,4-oxadiazol-2-yl)cyclopropane-1-carboxamide] | 0.1 to 1 | 
10 | CN(C#N)C1(c2nnc(-c3ccccc3Nc3ccc(C(F)(F)F)cc3)o2)CC1 [Compound 155, N-methyl-N-(1-(5-(2-((4-(trifluoromethyl)phenyl)amino)phenyl)-1,3,4-oxadiazol-2-yl)cyclopropyl)cyanamide] | < 0.1 | 
11 | COc1nnc(-c2ccccc2Nc2ccc(C(F)(F)F)cc2)o1 [Compound 73, 2-(5-methoxy-1,3,4-oxadiazol-2-yl)-N-(4-(trifluoromethyl)phenyl)aniline] | < 0.1 | 
12 | Cc1oncc1-c1nnc(-c2ccccc2Nc2ccc(C(F)(F)F)cc2)o1 [Compound 40, 2-(5-(5-methylisoxazol-4-yl)-1,3,4-oxadiazol-2-yl)-N-(4-(trifluoromethyl)phenyl) aniline] | 0.1 to 1 | 
13 | CCNCc1nnc(-c2ccccc2Nc2ccc(C(F)(F)F)cc2)o1 [Compound 100, 2-(5-((ethylamino)methyl)-1,3,4-oxadiazol-2-yl)-N-(4-(trifluoromethyl)phenyl)aniline] | 0.1 to 1 | 
14 | O=C(NCCO)c1nnc(-c2ccccc2Nc2ccc(C(F)(F)F)cc2)o1 [Compound 191, N-(2-hydroxyethyl)-5-(2-((4-(trifluoromethyl)phenyl)amino)phenyl)-1,3,4-oxadiazole-2-carboxamide] | < 0.1 | 
15 | O=C(O)Cc1nnc(-c2ccccc2Nc2ccc(C(F)(F)F)cc2)o1 [Compound 119, 2-(5-(2-((4-(trifluoromethyl)phenyl)amino)phenyl)-1,3,4-oxadiazol-2-yl)acetic acid] | 0.1 to 1 | 
16 | CC(c1nnc(-c2ccccc2Nc2ccc(C(F)(F)F)cc2)o1)N(C)C#N (stereo not drawn) [Compound 161, N-methyl-N-(1-(5-(2-((4-(trifluoromethyl)phenyl)amino)phenyl)-1,3,4-oxadiazol-2-yl)ethyl)cyanamide] | < 0.1 | 
17 | C#CCNC(=O)c1nnc(-c2ccccc2Nc2ccc(C(F)(F)F)cc2)o1 [Compound 116, N-(prop-2-yn-1-yl)-5-(2-((4-(trifluoromethyl)phenyl)amino)phenyl)-1,3,4-oxadiazole-2-carboxamide] | < 0.1 | 
18 | CNC(C)Cc1nnc(-c2ccccc2Nc2ccc(C(F)(F)F)cc2)o1 (stereo not drawn) [Compound 147, 2-(5-(2-(methylamino)propyl)-1,3,4-oxadiazol-2-yl)-N-(4-(trifluoromethyl)phenyl)aniline] | 1 to 5 | 
19 | C=CC(=O)NCc1nnc(-c2ccccc2Nc2ccc(C(F)(F)F)cc2)o1 [Compound 108, N-((5-(2-((4-(trifluoromethyl)phenyl)amino)phenyl)-1,3,4-oxadiazol-2-yl)methyl)acrylamide] | < 0.1 | 
20 | CC1(c2nnc(-c3ccccc3Nc3ccc(C(F)(F)F)cc3)o2)COC1 [Compound 183, 2-(5-(3-methyloxetan-3-yl)-1,3,4-oxadiazol-2-yl)-N-(4-(trifluoromethyl)phenyl)aniline] | 0.1 to 1 | 

Row | SMILES | IC50 [1] [µM] | IC50 ([…]) [µM]
21 | C#CCNC(=O)C(C)(C)c1nnc(-c2ccccc2Nc2ccc(C(F)(F)F)cc2)o1 [Compound 112, 2-methyl-N-(prop-2-yn-1-yl)-2-(5-(2-((4-(trifluoromethyl)phenyl)amino)phenyl)-1,3,4-oxadiazol-2-yl)propanamide] |  | 1 to 5
22 | FC(F)(F)c1ccc(Nc2ccccc2-c2nnc(C3(F)CC3)o2)cc1 [Compound 63, 2-(5-(1-fluorocyclopropyl)-1,3,4-oxadiazol-2-yl)-N-(4-(trifluoromethyl)phenyl) aniline] | 1 to 5 | 
23 | CC(O)(CCO)c1nnc(-c2ccccc2Nc2ccc(C(F)(F)F)cc2)o1 (stereo not drawn) [Compound 179, 3-(5-(2-((4-(trifluoromethyl)phenyl)amino)phenyl)-1,3,4-oxadiazol-2-yl)butane-1,3-diol] | < 0.1 | 
24 | OC(CCCl)c1nnc(-c2ccccc2Nc2ccc(C(F)(F)F)cc2)o1 (stereo not drawn) [Compound 80, 3-chloro-1-(5-(2-((4-(trifluoromethyl)phenyl)amino)phenyl)-1,3,4-oxadiazol-2-yl)propan-1-ol] |  | < 0.1
25 | C#CC(C)(C)c1nnc(-c2ccccc2Nc2ccc(C(F)(F)F)cc2)o1 [Compound 68, 2-(5-(2-methylbut-3-yn-2-yl)-1,3,4-oxadiazol-2-yl)-N-(4-(trifluoromethyl)phenyl)aniline] | < 0.1 | 
26 | C[C@@]1(c2nnc(-c3ccccc3Nc3ccc(C(F)(F)F)cc3)o2)CCNC1=O [Compound 75, (S)-3-methyl-3-(5-(2-((4-(trifluoromethyl)phenyl)amino)phenyl)-1,3,4-oxadiazol-2-yl)pyrrolidin-2-one] | < 0.1 | 
27 | CN(C#N)CC(C)(C)c1nnc(-c2ccccc2Nc2ccc(C(F)(F)F)cc2)o1 [Compound 146, N-methyl-N-(2-methyl-2-(5-(2-((4-(trifluoromethyl)phenyl)amino)phenyl)-1,3,4-oxadiazol-2-yl)propyl)cyanamide] | < 0.1 | 
28 | NC(=O)C1(c2nnc(-c3ccccc3Nc3ccc(C(F)(F)F)cc3)o2)CC1 [Compound 187, 1-(5-(2-((4-(trifluoromethyl)phenyl)amino)phenyl)-1,3,4-oxadiazol-2-yl)cyclopropane-1-carboxamide] | < 0.1 | 
29 | CC1(c2nnc(-c3ccccc3Nc3ccc(C(F)(F)F)cc3)o2)CCO1 (stereo not drawn) [Compound 180, 2-(5-(2-methyloxetan-2-yl)-1,3,4-oxadiazol-2-yl)-N-(4-(trifluoromethyl)phenyl)aniline] | < 0.1 | 
30 | NC(=O)c1nnc(-c2ccccc2Nc2ccc(C(F)(F)F)cc2)o1 [Compound 15, 5-(2-((4-(trifluoromethyl)phenyl)amino)phenyl)-1,3,4-oxadiazole-2-carboxamide] | < 0.1 | 
31 | CCNCCc1nnc(-c2ccccc2Nc2ccc(C(F)(F)F)cc2)o1 [Compound 94, 2-(5-(2-(ethylamino)ethyl)-1,3,4-oxadiazol-2-yl)-N-(4-(trifluoromethyl)phenyl)aniline] | 1 to 5 | 
32 | N#CCCNC(=O)c1nnc(-c2ccccc2Nc2ccc(C(F)(F)F)cc2)o1 [Compound 113, N-(2-cyanoethyl)-5-(2-((4-(trifluoromethyl)phenyl)amino)phenyl)-1,3,4-oxadiazole-2-carboxamide] |  | < 0.1
33 | OC(c1nnc(-c2ccccc2Nc2ccc(C(F)(F)F)cc2)o1)C1CC1 (stereo not drawn) [Compound 49, cyclopropyl(5-(2-((4-(trifluoromethyl)phenyl)amino)phenyl)-1,3,4-oxadiazol-2-yl)methanol] |  | < 0.1
34 | CC1(c2nnc(-c3ccccc3Nc3ccc(C(F)(F)F)cc3)o2)OCCO1 [Compound 86, 2-(5-(2-methyl-1,3-dioxolan-2-yl)-1,3,4-oxadiazol-2-yl)-N-(4-(trifluoromethyl)phenyl)aniline] | < 0.1 | 
35 | NC1(Cc2nnc(-c3ccccc3Nc3ccc(C(F)(F)F)cc3)o2)CC1 [Compound 136, 2-(5-((1-aminocyclopropyl)methyl)-1,3,4-oxadiazol-2-yl)-N-(4-(trifluoromethyl)phenyl)aniline] | 0.1 to 1 | 
36 | CC(C)(c1nnc(-c2ccccc2Nc2ccc(C(F)(F)F)cc2)o1)S(C)(=O)=O [Compound 163, 2-(5-(2-(methylsulfonyl)propan-2-yl)-1,3,4-oxadiazol-2-yl)-N-(4-(trifluoromethyl)phenyl)aniline] | 0.1 to 1 | 
37 | CC(C)(C)OC(=O)NC1(c2nnc(-c3ccccc3Nc3ccc(C(F)(F)F)cc3)o2)CC1 [Compound 57, Tert-Butyl (1-(5-(2-((4-(trifluoromethyl)phenyl)amino)phenyl)-1,3,4-oxadiazol-2-yl)cyclopropyl)carbamate] | 0.1 to 1 | 
38 | O=C(O)C1(c2nnc(-c3ccccc3Nc3ccc(C(F)(F)F)cc3)o2)CC1 [Compound 166, 1-(5-(2-((4-(trifluoromethyl)phenyl)amino)phenyl)-1,3,4-oxadiazol-2-yl)cyclopropane-1-carboxylic Acid] | < 0.1 | 
39 | NC1(c2nnc(-c3ccccc3Nc3ccc(C(F)(F)F)cc3)o2)CC1 [Compound 58, 2-(5-(1-aminocyclopropyl)-1,3,4-oxadiazol-2-yl)-N-(4-(trifluoromethyl)phenyl) aniline] | 0.1 to 1 | 
